The text below walks through data of patent US8623859B2, “Bradykinin B1 antagonists” (Evotec AG, priority 2008, dated 2014).

This assay addresses T1, human B1 (Homo sapiens, UniProt P46663).
T1 construct: host or cells: CHO-K1
T1 sequence (P46663 1-353): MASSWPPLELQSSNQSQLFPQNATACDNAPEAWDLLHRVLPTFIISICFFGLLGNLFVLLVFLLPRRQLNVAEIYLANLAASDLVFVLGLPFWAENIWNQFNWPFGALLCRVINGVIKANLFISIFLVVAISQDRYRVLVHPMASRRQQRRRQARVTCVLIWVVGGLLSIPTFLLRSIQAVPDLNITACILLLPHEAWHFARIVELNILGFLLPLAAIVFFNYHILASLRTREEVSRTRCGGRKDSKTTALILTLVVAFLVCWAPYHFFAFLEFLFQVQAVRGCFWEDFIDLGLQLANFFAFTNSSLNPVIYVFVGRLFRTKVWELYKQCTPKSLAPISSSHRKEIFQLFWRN
Kind of assay: Calcium flux assay for Bradykinin B1 antagonist, CHO-K1 cell line expressing human B1. Type of assay: cell-based. The conditions noted are these: CHO-K1 cells expressing human B1, agonist Lys-(Des-Arg)-Bradykinin, read-out: Potency (IC50 value against human B1). Here is the method:
Calcium Flux Assay for Bradykinin B1 Antagonist
The potency to inhibit the Bradykinin B1 receptors was determined for the compounds of this invention in a cell-based fluorescent calcium-mobilization assay. The assay measures the ability of test compounds to inhibit Bradykinin B1 receptor agonist-induced increase of intracellular free Ca^2+ in cell lines expressing B1.
The change of the intracellular Ca^2+ concentration is monitored with a specifically designed fluorescent plate reader (FlexStation, Molecular Devices).
CHO-K1 cell line expressing human B1 was purchased from Euroscreen (Gosselies, Belgium, with reference name hBl-D1). CHO-K1 cell lines expressing rat B1 or mouse B1 were established in the following way: the full-length receptor-coding cDNA clones were obtained by PCR performed on rat or mouse brain cDNAs. The respective cDNAs were cloned into an expression vector under the control of a CMV promotor. The resultant plasmids were introduced into CHO-K1 cells with liposome technology (FuGENE; Roche Diagnostics, Basel), according to the standard protocols described by the manufacturer. Cell lines expressing a Bradykinin receptor were selected in the culture medium containing 400 μg/ml G418 (Sigma). From selected cell populations, monoclonal cell lines were isolated by single cell cloning. The expression of Bradykinin receptors was confirmed by immunofluorescence staining of the cells, as well as by calcium flux assay.
Human B1-expressing cells were grown in Nutrient Mixture Ham's F12 (Sigma) containing 10% Foetal bovine serum (Sigma) and 400 μg/ml G418 (Sigma), 5 μg/ml puromycim (Sigma); Rat B1 and mouse B1-expressing cells were grown in DMEM/F12 medium (Sigma) containing 10% Foetal bovine serum (Sigma) and 400 μg/ml G418 (Sigma).
For the calcium flux assay, 80% confluent cells were detached from the culture vessels with Versene (Gibco; for human B1 cell-line) or with 1× trypsin-EDTA solution (Sigma; for rodent B1 cell-line), and seeded into 384-well plates (Cell binding Surface; Corning, N.Y.; #3683) at a density of 15,000 cells per well for human B1 or at a density of 20,000 cells per well for rodent B1. Cells were seeded in a volume of 50 μl in medium without antibiotics and incubated overnight in a humidified atmosphere with 5% CO2 at 37° C. The following day, the medium was replaced with 20 μl of 5 μM Fluo-4AM dye (Molecular Probes) in assay buffer (2.5 mM probenicid, 1 mg/ml pluronic acid, 0.1% BSA, 135 mM NaCl, 5 mM KCl, 1.8 mM CaCl, 1 mM MgCl2, 10 mM HEPES, 5.6 mM glucose, 0.05% gelatine, pH 7.4). The calcium indicator loaded cells were incubated at 37° C. for 2 hrs. Extracellular dye was then removed and each well was filled with 45 μl of assay buffer. Cell plates were kept in dark until used. Test compounds were assayed at 8 concentrations in triplicate. Serial 10-fold dilutions in 100% DMSO were made at a 100-times higher concentration than the final concentration, and then diluted 1:10 in assay buffer. 5 μl of each diluted compound was added to the well of cell plates (yielding final concentration with 1% DMSO), and incubated for 30 min at 25° C. before the addition of B1 agonist on the FlexStation.
The addition of agonist 20 μl per well to the assay plate was carried out on the FlexStation while continuously monitoring Ca^2+-dependent fluorescence at 538 nm. The integrated values, normalized with the background fluorescence, were plotted against the logarithm of the antagonist concentrations.
On the technique in general: Calcium assays in cells follow changes in intracellular calcium, usually with a dye or a luminescent sensor.
Usually IC50 stands for the midpoint of a concentration-inhibition curve. For the molecule `COc1cc(C)c(S(=O)(=O)N(C)Cc2cc(C(=O)N(C)Cc3ccc(-c4nccn4C)cc3)co2)c(C)c1` [Ex 43, 5-({[(4-methoxy-2,6-dimethylphenyl)sulfonyl](methyl)amino}methyl)-N-methyl-N-[4-(1-methyl-1H-imidazol-2-yl)benzyl]furan-3-carboxamide], the 50% inhibitory concentration (IC50) fell in the range of 100 to 1000 nM.
For `COc1cc(C)c(S(=O)(=O)N(C)Cc2cc(C(=O)NCCc3ccc(Nc4nccc(N)n4)cc3)co2)c(C)c1` [Ex 44, N-(2-{4-[(4-aminopyrimidin-2-yl)amino]phenyl}ethyl)-5-({[(4-methoxy-2,6-dimethylphenyl)sulfonyl](methyl)amino}methyl)furan-3-carboxamide], the half-inhibitory concentration (IC50) lay in the range of 100 to 1000 nM.
For `COc1cc(C)c(S(=O)(=O)N(C)Cc2cc(C(=O)NCCc3ccc(Nc4ccnc(N)n4)cc3)co2)c(C)c1` [Ex 45, N-(2-{4-[(2-aminopyrimidin-4-yl)amino]phenyl}ethyl)-5-({[(4-methoxy-2,6-dimethylphenyl)sulfonyl](methyl)amino}methyl)furan-3-carboxamide] the value was 100 to 1000 nM; for `COc1cc(C)c(S(=O)(=O)N(C)Cc2cc(C(=O)NCCc3ccc(CN4CCCC4)cc3)co2)c(C)c1` [Ex 46, 5-({[(4-methoxy-2,6-dimethylphenyl)sulfonyl](methyl)amino}methyl)-N-{2-[4-(pyrrolidin-1-ylmethyl)phenyl]ethyl}furan-3-carboxamide], 100 to 1000 nM.
For `CCN(Cc1cc(C(=O)N(C)CCc2ccc(C3=NCCN3)cc2)co1)S(=O)(=O)c1c(C)cc(OC)cc1C` [Ex 47, N-{2-[4-(4,5-dihydro-1H-imidazol-2-yl)phenyl]ethyl}-5-({ethyl[(4-methoxy-2,6-dimethylphenyl)sulfonyl]amino}methyl)-N-methylfuran-3-carboxamide] the value was less than 10 nM.
As to `COc1cc(C)c(S(=O)(=O)N(Cc2cc(C(=O)N(C)CCc3ccc(C4=NCCN4)cc3)co2)C(C)C)c(C)c1` [Ex 48, N-{2-[4-(4,5-dihydro-1H-imidazol-2-yl)phenyl]ethyl}-5-({[(4-methoxy-2,6-dimethylphenyl)sulfonyl](1-methylethyl)amino}methyl)-N-methylfuran-3-carboxamide], the 50% inhibitory concentration (IC50) was in the range of 10 to 100 nM.
The figure for `COc1cc(C)c(S(=O)(=O)N(Cc2cc(C(=O)NCCc3ccc(C4=NCCN4)cc3)co2)CC2CC2)c(C)c1` [Ex 49, 5-({(Cyclopropylmethyl)[(4-methoxy-2,6-dimethylphenyl)sulfonyl]amino}methyl)-N-{2-[4-(4,5-dihydro-1H-imidazol-2-yl)phenyl]ethyl}furan-3-carboxamide] is 10 to 100 nM; for `COc1cc(C)c(S(=O)(=O)N(Cc2cc(C(=O)N(C)Cc3ccc(C4=NCCN4)cc3)co2)c2ccccc2)c(C)c1` [Ex 50, N-[4-(4,5-dihydro-1H-imidazol-2-yl)benzyl]-5-({[(4-methoxy-2,6-dimethylphenyl)sulfonyl] (phenyl)amino}methyl)-N-methylfuran-3-carboxamide] it is 100 to 1000 nM.
Turning to `COc1cc(C)c(S(=O)(=O)N(Cc2cc(C(=O)N(C)CCc3ccc(C4=NCCN4)cc3)co2)C2CCC2)c(C)c1` [Ex 51, 5-({Cyclobutyl[(4-methoxy-2,6-dimethylphenyl)sulfonyl]amino}methyl)-N-{2-[4-(4,5-dihydro-1H-imidazol-2-yl)phenyl]ethyl}-N-methylfuran-3-carboxamide], the half-inhibitory concentration (IC50) was less than 10 nM.
For `COc1cc(C)c(S(=O)(=O)N(Cc2cc(C(=O)NCCc3ccc(C4=NCCN4)cc3)co2)C2CC2)c(C)c1` [Ex 52, 5-({Cyclopropyl[(4-methoxy-2,6-dimethylphenyl)sulfonyl]amino}methyl)-N-{2-[4-(4,5-dihydro-1H-imidazol-2-yl)phenyl]ethyl}furan-3-carboxamide] the value was less than 10 nM; for `COc1cc(C)c(S(=O)(=O)N(Cc2cc(C(=O)N3CCN(C4CCN(C)CC4)CC3)co2)C2CC2)c(C)c1` [Ex 53, N-cyclopropyl-4-methoxy-2,6-dimethyl-N-[(4-{[4-(1-methylpiperidin-4-yl)piperazin-1-yl]carbonyl}furan-2-yl)methyl]benzenesulfonamide], 100 to 1000 nM; for `COc1cc(C)c(S(=O)(=O)N(Cc2cc(C(=O)NCc3cccc(CN4CCCC4)c3)co2)C2CC2)c(C)c1` [Ex 54, 5-({Cyclopropyl[(4-methoxy-2,6-dimethylphenyl)sulfonyl]amino}methyl)-N-[3-(pyrrolidin-1-ylmethyl)benzyl]furan-3-carboxamide], 10 to 100 nM.
For `COc1cc(C)c(S(=O)(=O)N(Cc2cc(C(=O)N(C)Cc3cccc(CN4CCCC4)c3)co2)C2CC2)c(C)c1` [Ex 55, 5-({Cyclopropyl[(4-methoxy-2,6-dimethylphenyl)sulfonyl]amino}methyl)-N-methyl-N-[3-(pyrrolidin-1-ylmethyl)benzyl]furan-3-carboxamide] the value was 10 to 100 nM; for `COc1cc(C)c(S(=O)(=O)N(Cc2cc(C(=O)NCc3ccc(CN4CCCC4)cc3)co2)C2CC2)c(C)c1` [Ex 56, 5-({Cyclopropyl[(4-methoxy-2,6-dimethylphenyl)sulfonyl]amino}methyl)-N-[4-(pyrrolidin-1-ylmethyl)benzyl]furan-3-carboxamide], 10 to 100 nM; for `COc1cc(C)c(S(=O)(=O)N(Cc2cc(C(=O)N(C)Cc3ccc(CN4CCCC4)cc3)co2)C2CC2)c(C)c1` [Ex 57, 5-({Cyclopropyl[(4-methoxy-2,6-dimethylphenyl)sulfonyl]amino}methyl)-N-methyl-N-[4-(pyrrolidin-1-ylmethyl)benzyl]furan-3-carboxamide], 10 to 100 nM.
On to `COc1cc(C)c(S(=O)(=O)N(C)Cc2cc(C(=O)N(C)Cc3ccc(C4=NCCN4)cc3)c(C)o2)c(C)c1` [Ex 58, N-[4-(4,5-dihydro-1H-imidazol-2-yl)benzyl]-5-({[(4-methoxy-2,6-dimethylphenyl)sulfonyl](methyl)amino}methyl)-N,2-dimethylfuran-3-carboxamide], for which the IC50 was in the range of 10 to 100 nM.
The figure for `COc1cc(C)c(S(=O)(=O)N(C)Cc2cc(C(=O)N(C)CCc3ccc(C4=NCCN4)cc3)c(C)o2)c(C)c1` [Ex 59, N-{2-[4-(4,5-dihydro-1H-imidazol-2-yl)phenyl]ethyl}-5-({[(4-methoxy-2,6-dimethylphenyl)sulfonyl](methyl)amino}methyl)-N,2-dimethylfuran-3-carboxamide] is 100 to 1000 nM; for `COc1cc(C)c(S(=O)(=O)N(C)Cc2cc(C(=O)NCCc3ccc(C4=NCCN4)cc3)c(C)o2)c(C)c1` [Ex 61, N-{2-[4-(4,5-dihydro-1H-imidazol-2-yl)phenyl]ethyl}-5-({[(4-methoxy-2,6-dimethylphenyl)sulfonyl](methyl)amino}methyl)-2-methylfuran-3-carboxamide] it is 10 to 100 nM; for `COc1cc(C)c(S(=O)(=O)N(C)Cc2ccc(C(=O)N3CCN(C4CCN(C)CC4)CC3)o2)c(C)c1` [Ex 62, 4-Methoxy-N,2,6-trimethyl-N-[(5-{[4-(1-methylpiperidin-4-yl)piperazin-1-yl]carbonyl}furan-2-yl)methyl]benzenesulfonamide] it is 100 to 1000 nM.
For `COc1cc(C)c(S(=O)(=O)N(C)Cc2nsc(C(=O)NCCc3ccc(C4=NCCN4)cc3)n2)c(C)c1` [Ex 63, N-{2-[4-(4,5-dihydro-1H-imidazol-2-yl)phenyl]ethyl}-3-({[(4-methoxy-2,6-dimethylphenyl)sulfonyl](methyl)amino}methyl)-1,2,4-thiadiazole-5-carboxamide] the value was less than 10 nM.
